Results taken from ChEMBL document CHEMBL1157914, “5,5'-substituted indirubin-3'-oxime derivatives as potent cyclin-dependent kinase inhibitors with anticancer activity” (J Med Chem, 2010).
Converted amounts (≈) assume the structure as drawn. The source made the active and inactive calls. The rule behind the calls is not given here.

How the values were obtained:
[1] = biological target: Cyclin-dependent kinase 2/cyclin E1 (Homo sapiens, UniProt P24941); experiment: Inhibition of CDK2/cyclin E; format: protein-complex assay
[2] = test system: Hepatocyte growth factor receptor (Homo sapiens), P08581 [M1250T]; experiment: Inhibition of recombinant Met M1250T mutant at 10 uM preincubated for 15 mins by HTRF assay
[3] = biological target: Cyclin-dependent kinase 2/cyclin E1 (Homo sapiens) (UniProt P24864+P24941); experiment: Inhibition of CDK2/cyclin E as percent residual activity; format: protein-complex assay; design: Residual activity / inhibition: concentration or dose not given beside the values
[4] = Selectivity ratio for CDK2/cyclinE over CDK1/cyclin B
[5] = biological target: Hepatocyte growth factor receptor (Homo sapiens) (UniProt P08581); experiment: Inhibition of recombinant c-met at 10 uM preincubated for 15 mins by HTRF assay
[6] = biological target: Macrophage-stimulating protein receptor (Homo sapiens) (UniProt Q04912); experiment: Inhibition of recombinant Ron at 10 uM preincubated for 15 mins by HTRF assay
[7] = biological target: Vascular endothelial growth factor receptor 2 (Homo sapiens) (UniProt P35968); experiment: Inhibition of recombinant VEGFR2 at 10 uM preincubated for 15 mins by HTRF assay
[8] = biological target: Epidermal growth factor receptor (Homo sapiens) (UniProt P00533); experiment: Inhibition of recombinant EGFR at 10 uM preincubated for 15 mins by HTRF assay
[9] = biological target: Phosphatidylinositol 4,5-bisphosphate 3-kinase catalytic subunit gamma isoform (Homo sapiens) (UniProt P48736); experiment: Inhibition of human PI3Kgamma at 10 uM preincubated for 15 mins by HTRF assay
[10] = biological target: Insulin receptor (Homo sapiens) (UniProt P06213); experiment: Inhibition of insulin receptor at 10 uM preincubated for 15 mins by HTRF assay
[11] = biological target: Aurora kinase A (Homo sapiens) (UniProt O14965); experiment: Inhibition of recombinant auroraA at 10 uM preincubated for 15 mins by HTRF assay
[12] = biological target: Inhibitor of nuclear factor kappa-B kinase subunit beta (Homo sapiens) (UniProt O14920); experiment: Inhibition of recombinant IKK-beta at 10 uM preincubated for 15 mins by HTRF assay
[13] = biological target: T1, High affinity nerve growth factor receptor (Homo sapiens, UniProt P04629); experiment: Inhibition of recombinant TrKa at 10 uM preincubated for 15 mins by HTRF assay
Target sequence in this assay (P04629 33-796 limits assumed): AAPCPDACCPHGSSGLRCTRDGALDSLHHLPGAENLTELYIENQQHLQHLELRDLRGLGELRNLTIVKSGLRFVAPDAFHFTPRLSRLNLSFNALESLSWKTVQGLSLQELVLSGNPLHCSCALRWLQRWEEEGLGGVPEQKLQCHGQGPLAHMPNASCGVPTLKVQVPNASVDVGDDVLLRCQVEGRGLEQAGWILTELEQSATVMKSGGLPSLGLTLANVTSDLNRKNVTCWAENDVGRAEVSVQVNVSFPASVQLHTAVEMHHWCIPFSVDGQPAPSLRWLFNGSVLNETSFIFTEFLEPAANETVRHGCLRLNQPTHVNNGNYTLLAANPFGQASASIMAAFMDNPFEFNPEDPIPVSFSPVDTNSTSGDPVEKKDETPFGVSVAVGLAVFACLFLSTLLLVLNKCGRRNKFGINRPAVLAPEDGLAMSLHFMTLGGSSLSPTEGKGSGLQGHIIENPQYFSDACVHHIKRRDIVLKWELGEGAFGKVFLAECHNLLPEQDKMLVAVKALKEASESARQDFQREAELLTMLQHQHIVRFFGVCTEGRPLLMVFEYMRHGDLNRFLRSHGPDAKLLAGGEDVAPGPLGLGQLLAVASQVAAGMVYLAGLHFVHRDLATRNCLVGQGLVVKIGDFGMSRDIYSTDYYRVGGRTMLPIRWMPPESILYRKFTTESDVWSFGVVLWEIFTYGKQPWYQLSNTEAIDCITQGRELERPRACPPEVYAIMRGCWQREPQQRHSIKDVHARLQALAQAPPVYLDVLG

A549 = experiment: Antiproliferative activity against human A549 cells after 3 days by SRB assay; format: functional, cell-based; details: A549, 72 h
HT-1080 = experiment: Antiproliferative activity against human HT1080 cells after 3 days by SRB assay; format: functional, cell-based; details: HT-1080, 72 h
[14] = Antiproliferative activity against human […] cells after 3 days by SRB assay; format: functional, cell-based; details: 72 h
K562 = experiment: Antiproliferative activity against human K562 cells after 3 days by SRB assay; format: functional, cell-based; details: K562, 72 h
SNU-638 = experiment: Antiproliferative activity against human SNU638 cells after 3 days by SRB assay; format: functional, cell-based; details: SNU-638, 72 h
KB = experiment: Antiproliferative activity against human KB cells after 3 days by SRB assay; format: functional, cell-based; details: 72 h
MCF7 = experiment: Antiproliferative activity against human MCF7 cells after 3 days by SRB assay; format: functional, cell-based; details: MCF7, 72 h
[15] = biological target: Cyclin-dependent kinase 1/cyclin B1 (Homo sapiens, UniProt P06493); experiment: Inhibition of CDK1/cyclin B after 40 mins by liquid scintillation counting; format: protein-complex assay
[16] = Cell cycle arrest in rat RK3E cells expressing k-ras assessed as accumulation at S phase at 2.5 uM after 24 hrs using propidium iodide stain by flow cytometry; format: functional, cell-based
[17] = Cell cycle arrest in rat RK3E cells expressing k-ras assessed as accumulation at G2/M phase at 2.5 uM after 24 hrs using propidium iodide stain by flow cytometry; format: functional, cell-based
[18] = Aqueous solubility of compound in water; format: physicochemical; details: buffer
[19] = Solubility of compound in 2 equimolar NaOH and distilled water; format: physicochemical; details: buffer
[20] = Solubility of compound in 3 equimolar NaOH and distilled water; format: physicochemical; details: buffer
[21] = Solubility of compound in 3 equimolar NaOH and 0.1 N NaHCO3 buffer; format: physicochemical
[22] = biological target: Cyclin-dependent kinase 1/cyclin B1 (Homo sapiens) (UniProt P06493+P14635); experiment: Inhibition of CDK1/cyclin B at 1 uM after 40 mins by lequid scintillation counting; format: protein-complex assay
[23] = biological target: Inhibitor of nuclear factor kappa-B kinase subunit beta (Homo sapiens, UniProt O14920); experiment: Inhibition of recombinant IKK-beta preincubated for 15 mins by HTRF assay
[24] = biological target: T1, High affinity nerve growth factor receptor; experiment: Inhibition of recombinant TrKa preincubated for 15 mins by HTRF assay
Target sequence in this assay (P04629 whole entry): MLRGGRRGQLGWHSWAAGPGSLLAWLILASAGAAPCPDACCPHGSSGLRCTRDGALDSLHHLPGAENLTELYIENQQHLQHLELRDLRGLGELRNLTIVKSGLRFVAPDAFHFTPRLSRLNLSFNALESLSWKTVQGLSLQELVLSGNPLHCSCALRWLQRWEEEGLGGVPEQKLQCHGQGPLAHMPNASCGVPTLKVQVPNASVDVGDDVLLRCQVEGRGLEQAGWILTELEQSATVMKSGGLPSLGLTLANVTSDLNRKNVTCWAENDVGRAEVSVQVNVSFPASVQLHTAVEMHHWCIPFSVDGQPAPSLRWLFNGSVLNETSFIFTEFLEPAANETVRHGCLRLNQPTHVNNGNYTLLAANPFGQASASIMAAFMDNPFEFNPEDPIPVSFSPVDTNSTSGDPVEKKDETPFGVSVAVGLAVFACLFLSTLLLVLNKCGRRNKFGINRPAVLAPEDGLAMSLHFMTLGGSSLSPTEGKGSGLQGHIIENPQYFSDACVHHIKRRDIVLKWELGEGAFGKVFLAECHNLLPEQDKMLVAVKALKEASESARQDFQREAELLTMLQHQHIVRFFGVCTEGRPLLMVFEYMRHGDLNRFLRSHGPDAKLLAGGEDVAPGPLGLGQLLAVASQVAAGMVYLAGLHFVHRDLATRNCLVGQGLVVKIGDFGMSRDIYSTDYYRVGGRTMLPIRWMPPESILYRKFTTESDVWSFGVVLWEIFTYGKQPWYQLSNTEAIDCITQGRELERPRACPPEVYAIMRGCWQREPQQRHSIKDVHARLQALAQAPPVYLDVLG

[25] = biological target: T1, High affinity nerve growth factor receptor; experiment: Inhibition of recombinant TrKa at 1 uM preincubated for 15 mins by HTRF assay
Target sequence in this assay (P04629 33-796 limits assumed): as the sequence (P04629 33-796 limits assumed) above

RK3E [26] = experiment: Antitumor activity against rat RK3E cells expressing k-ras and GFP/Luc genes transplanted in Sprague-Dawley rat assessed as decrease of PCNA expression at 5 mg/kg, iv administered 5 days after tumor implantation for 5 times measured after 11 days by immunohistochemical staining relative to control; format: functional, organism-based; design: dose 5 mg/kg
[27] = Antitumor activity against rat RK3E cells expressing k-ras and GFP/Luc genes transplanted in Sprague-Dawley rat assessed as decrease in tumor volume at 5 mg/kg, iv administered 5 days after tumor implantation for 5 times measured after 48 hrs post dose relative to control; format: functional; design: scale not given: the % may be the effect or the level left
RK3E [28] = experiment: Antitumor activity against rat RK3E cells expressing k-ras and GFP/Luc genes transplanted in Sprague-Dawley rat assessed as increase in apoptotic cells at 5 mg/kg, iv administered 5 days after tumor implantation for 5 times measured after 11 days by TUNEL assay relative to control; format: functional, organism-based; design: dose 5 mg/kg
Rattus norvegicus = experiment: Toxicity in rat RK3E cells expressing k-ras and GFP/Luc genes transplanted in Sprague-Dawley rat assessed as change in body weight at 5 mg/kg, iv administered 5 days after tumor implantation for 5 times measured after 48 hrs post dose; format: organism-based; design: dose 5 mg/kg, route intravenous; details: in vivo
RK3E [29] = experiment: Antitumor activity against rat RK3E cells expressing k-ras and GFP/Luc genes transplanted in Sprague-Dawley rat assessed as decrease of tumor growth at 5 mg/kg, iv administered 5 days after tumor implantation for 5 times measured on day 10 by luciferin bioluminescence assay; format: functional, organism-based; design: dose 5 mg/kg
[30] = Cell cycle arrest in rat RK3E cells expressing k-ras assessed as accumulation at sub G0 phase at 1 uM after 24 hrs using propidium iodide stain by flow cytometry; format: functional, cell-based
[31] = Cell cycle arrest in rat RK3E cells expressing k-ras assessed as accumulation at G0/G1 phase at 1 uM after 24 hrs using propidium iodide stain by flow cytometry; format: functional, cell-based
[32] = Cell cycle arrest in rat RK3E cells expressing k-ras assessed as accumulation at S phase at 1 uM after 24 hrs using propidium iodide stain by flow cytometry; format: functional, cell-based
[33] = Cell cycle arrest in rat RK3E cells expressing k-ras assessed as accumulation at G2/M phase at 1 uM after 24 hrs using propidium iodide stain by flow cytometry; format: functional, cell-based
[34] = Cell cycle arrest in rat RK3E cells expressing k-ras assessed as accumulation at sub G0 phase at 2.5 uM after 24 hrs using propidium iodide stain by flow cytometry; format: functional, cell-based
[35] = Cell cycle arrest in rat RK3E cells expressing k-ras assessed as accumulation at G0/G1 phase at 2.5 uM after 24 hrs using propidium iodide stain by flow cytometry; format: functional, cell-based

Chain of Inhibitor of nuclear factor kappa-B kinase subunit beta (O14920 whole entry): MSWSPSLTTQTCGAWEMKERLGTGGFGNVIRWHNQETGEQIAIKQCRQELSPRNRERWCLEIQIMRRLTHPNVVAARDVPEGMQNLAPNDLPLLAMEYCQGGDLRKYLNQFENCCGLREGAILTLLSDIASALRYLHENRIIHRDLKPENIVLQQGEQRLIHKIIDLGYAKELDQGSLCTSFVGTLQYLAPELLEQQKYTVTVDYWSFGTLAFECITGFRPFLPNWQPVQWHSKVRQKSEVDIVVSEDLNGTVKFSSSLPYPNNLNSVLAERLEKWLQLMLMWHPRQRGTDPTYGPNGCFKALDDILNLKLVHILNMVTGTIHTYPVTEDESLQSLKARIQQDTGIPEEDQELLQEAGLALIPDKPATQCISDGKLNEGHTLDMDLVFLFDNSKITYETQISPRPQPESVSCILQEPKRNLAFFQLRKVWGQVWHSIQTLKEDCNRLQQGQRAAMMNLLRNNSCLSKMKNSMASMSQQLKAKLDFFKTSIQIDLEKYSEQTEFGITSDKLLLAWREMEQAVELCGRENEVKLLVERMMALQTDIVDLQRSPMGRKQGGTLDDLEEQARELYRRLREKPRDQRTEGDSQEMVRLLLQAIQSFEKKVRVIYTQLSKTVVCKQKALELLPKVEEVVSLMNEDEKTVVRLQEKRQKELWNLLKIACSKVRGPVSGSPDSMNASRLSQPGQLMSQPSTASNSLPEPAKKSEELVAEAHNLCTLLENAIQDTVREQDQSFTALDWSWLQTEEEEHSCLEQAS
Chain of Inhibitor of nuclear factor kappa-B kinase subunit beta (Homo sapiens) (O14920 whole entry): as above
Chain of Hepatocyte growth factor receptor (Homo sapiens) (P08581 whole entry): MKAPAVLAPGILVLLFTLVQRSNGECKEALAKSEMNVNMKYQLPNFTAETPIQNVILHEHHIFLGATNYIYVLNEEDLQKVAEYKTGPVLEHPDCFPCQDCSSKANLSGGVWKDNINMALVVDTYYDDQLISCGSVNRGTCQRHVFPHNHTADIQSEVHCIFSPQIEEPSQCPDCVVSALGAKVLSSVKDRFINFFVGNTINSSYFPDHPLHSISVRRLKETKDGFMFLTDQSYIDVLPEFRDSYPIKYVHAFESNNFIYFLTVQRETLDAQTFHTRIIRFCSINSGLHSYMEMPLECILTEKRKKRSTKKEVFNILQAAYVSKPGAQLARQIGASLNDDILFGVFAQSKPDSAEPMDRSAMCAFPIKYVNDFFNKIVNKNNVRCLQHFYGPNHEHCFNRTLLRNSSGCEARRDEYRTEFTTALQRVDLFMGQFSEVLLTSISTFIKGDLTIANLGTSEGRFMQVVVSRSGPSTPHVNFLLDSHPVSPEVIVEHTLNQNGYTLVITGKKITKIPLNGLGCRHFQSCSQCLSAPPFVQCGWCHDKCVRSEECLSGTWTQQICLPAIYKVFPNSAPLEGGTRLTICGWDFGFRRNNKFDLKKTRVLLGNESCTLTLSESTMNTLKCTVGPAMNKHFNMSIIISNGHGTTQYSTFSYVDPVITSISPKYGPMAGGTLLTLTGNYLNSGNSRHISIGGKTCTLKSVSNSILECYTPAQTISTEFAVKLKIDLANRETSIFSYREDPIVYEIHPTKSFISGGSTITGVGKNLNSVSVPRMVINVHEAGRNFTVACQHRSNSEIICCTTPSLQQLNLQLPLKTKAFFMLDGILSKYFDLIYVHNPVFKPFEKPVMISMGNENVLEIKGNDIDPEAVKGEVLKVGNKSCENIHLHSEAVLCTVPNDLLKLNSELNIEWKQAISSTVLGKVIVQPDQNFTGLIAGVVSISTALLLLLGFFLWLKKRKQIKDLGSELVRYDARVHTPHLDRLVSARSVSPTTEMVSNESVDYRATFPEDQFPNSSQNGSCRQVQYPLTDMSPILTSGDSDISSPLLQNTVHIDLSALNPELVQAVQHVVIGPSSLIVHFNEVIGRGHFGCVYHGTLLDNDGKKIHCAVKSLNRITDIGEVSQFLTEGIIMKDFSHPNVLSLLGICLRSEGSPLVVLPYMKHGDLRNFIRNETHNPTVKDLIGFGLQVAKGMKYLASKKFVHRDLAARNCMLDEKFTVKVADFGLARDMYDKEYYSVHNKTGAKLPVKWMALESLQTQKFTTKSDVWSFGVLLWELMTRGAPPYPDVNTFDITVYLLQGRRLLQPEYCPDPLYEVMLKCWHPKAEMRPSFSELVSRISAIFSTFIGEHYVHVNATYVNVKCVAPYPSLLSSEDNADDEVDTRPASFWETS
Chain of Phosphatidylinositol 4,5-bisphosphate 3-kinase catalytic subunit gamma isoform (Homo sapiens) (P48736 whole entry, looked up, canonical isoform): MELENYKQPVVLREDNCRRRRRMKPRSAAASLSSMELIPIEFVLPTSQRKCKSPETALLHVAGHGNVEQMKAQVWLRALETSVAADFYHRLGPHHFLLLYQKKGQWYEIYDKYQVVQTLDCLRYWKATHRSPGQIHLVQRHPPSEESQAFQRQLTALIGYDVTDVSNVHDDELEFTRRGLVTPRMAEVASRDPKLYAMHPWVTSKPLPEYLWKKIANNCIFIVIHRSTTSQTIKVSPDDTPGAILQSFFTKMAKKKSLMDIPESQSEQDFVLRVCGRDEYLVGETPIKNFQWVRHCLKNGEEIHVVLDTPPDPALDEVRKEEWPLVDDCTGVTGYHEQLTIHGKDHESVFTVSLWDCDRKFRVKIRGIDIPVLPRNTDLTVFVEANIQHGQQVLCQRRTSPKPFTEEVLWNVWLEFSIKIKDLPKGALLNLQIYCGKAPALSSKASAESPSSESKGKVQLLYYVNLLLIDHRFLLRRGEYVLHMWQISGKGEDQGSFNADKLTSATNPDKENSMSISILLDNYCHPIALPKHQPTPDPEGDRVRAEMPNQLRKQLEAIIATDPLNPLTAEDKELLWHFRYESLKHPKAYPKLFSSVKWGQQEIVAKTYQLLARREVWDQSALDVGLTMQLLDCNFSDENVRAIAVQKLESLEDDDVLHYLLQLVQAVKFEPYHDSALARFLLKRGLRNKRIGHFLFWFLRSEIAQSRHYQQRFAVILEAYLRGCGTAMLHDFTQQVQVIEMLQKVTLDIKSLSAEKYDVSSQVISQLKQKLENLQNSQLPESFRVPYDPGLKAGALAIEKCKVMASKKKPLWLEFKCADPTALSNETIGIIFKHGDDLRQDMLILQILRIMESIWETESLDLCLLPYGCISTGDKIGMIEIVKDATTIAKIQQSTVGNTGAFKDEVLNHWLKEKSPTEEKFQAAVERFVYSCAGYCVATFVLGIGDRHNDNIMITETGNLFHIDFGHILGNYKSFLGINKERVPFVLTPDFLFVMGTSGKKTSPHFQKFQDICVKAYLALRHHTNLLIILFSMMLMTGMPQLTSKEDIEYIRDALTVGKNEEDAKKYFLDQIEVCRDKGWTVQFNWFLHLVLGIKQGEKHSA

In the case of `O=C1Nc2ccc([N+](=O)[O-])cc2/C1=C1/Nc2ccc(Cl)cc2/C1=N/O`, the IC50 [1] is reported as 23.5 nM, the inhibition [2] is reported as “inactive” and the Residual activity [3] is reported as 90%. The Selectivity ratio [4] was 8, the inhibition [5] was “inactive” and the inhibition [6] was “inactive”. The inhibition [7] was “inactive”, the inhibition [8] was “inactive” and the inhibition [9] was “inactive”. The inhibition [10] was “inactive”, the inhibition [11] was “inactive” and the inhibition [12] was “inactive”. For the same molecule, the inhibition [13] was “inactive”, the IC50 (A549) was 15600 nM and the IC50 (HT-1080) was 1250 nM. It also gave an IC50 [14] of 330 nM, an IC50 (K562) of 560 nM and an IC50 (SNU-638) of 1160 nM. It also gave an IC50 (KB) of 1110 nM and an IC50 (MCF7) of 510 nM.
For `O=C1Nc2ccc([N+](=O)[O-])cc2/C1=C1/Nc2ccc(O)cc2/C1=N/O`, the IC50 [1] was 1.91 nM, the IC50 [15] was 13 nM and the Activity [16] was 9.66%. It also gave an Activity [17] of 5.67%, a solubility [18] of 10 µg/mL (≈ 0.0296 mM) and a solubility [19] of 2700 µg/mL (≈ 7.98 mM). It also gave a solubility [20] of 3000 µg/mL (≈ 8.87 mM), a solubility [21] of 200 µg/mL (≈ 0.591 mM) and a Residual activity [3] of 90%. The inhibition [22] was “Active”, the IC50 [23] was 10000 nM and the IC50 [24] was 4000 nM. For the same molecule, the inhibition [25] was 9%, the IC50 (KB) was 1330 nM and the IC50 (MCF7) was 1210 nM. For the same molecule, the Activity (RK3E [26]) was “Active”, the Activity [27] was 84.3% and the Activity (RK3E [28]) was “Active”. For the same molecule, the Activity (Rattus norvegicus) was “Non-toxic”, the Activity (RK3E [29]) was “Active” and the Activity [30] was 8.16%. For the same molecule, the Activity [31] was 57.7%, the Activity [32] was 7.96% and the Activity [33] was 8.16%. For the same molecule, the Activity [34] was 5.59% and the Activity [35] was 74.5%.
